Reference: article PMC10313180, “Structure snapshots reveal the mechanism of a bacterial membrane lipoprotein N-acyltransferase” (Science Advances, 2023)
No end group written: not given here. *: point of attachment. dipalmitoylglyceryl = dipalmitoylglyceryl (diacylglyceryl moiety on the cysteine); Palmitoyl = CCCCCCCCCCCCCCCC(=O)*

T1: LntPae (Pseudomonas aeruginosa, UniProt Q9ZI86)
T1 construct: gene lnt; full length, N-terminal thrombin-cleavable His6 tag, pET28a, expressed in E. coli C41(DE3); membrane protein in LMNG micelles or cubic mesophase
T1 sequence (Q9ZI86 1-511): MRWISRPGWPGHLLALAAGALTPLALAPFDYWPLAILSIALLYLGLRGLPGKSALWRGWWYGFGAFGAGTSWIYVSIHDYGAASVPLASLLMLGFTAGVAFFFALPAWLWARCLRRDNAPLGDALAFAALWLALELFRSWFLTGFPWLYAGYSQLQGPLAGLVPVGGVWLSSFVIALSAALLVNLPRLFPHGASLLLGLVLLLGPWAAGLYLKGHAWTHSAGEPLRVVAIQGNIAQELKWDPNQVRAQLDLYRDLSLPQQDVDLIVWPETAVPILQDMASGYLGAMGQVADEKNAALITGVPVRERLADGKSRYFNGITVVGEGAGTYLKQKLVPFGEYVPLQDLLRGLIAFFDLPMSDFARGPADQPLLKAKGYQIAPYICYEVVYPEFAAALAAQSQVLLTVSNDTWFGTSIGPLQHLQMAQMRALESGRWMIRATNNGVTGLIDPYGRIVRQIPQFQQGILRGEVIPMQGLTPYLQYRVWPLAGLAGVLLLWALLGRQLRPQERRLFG

B1: Pam3CSK4, Cys(Pam3)-Ser-(Lys)4 (peptide)
peptide: Palmitoyl-C(dipalmitoylglyceryl)SKKKK
notes: Printed in three-letter code: Cys-Ser-Lys-Lys-Lys-Lys; triacylated bacterial lipoprotein peptide analog; Triacylated lipopeptide; also called TA-BLPtide product; BLPtide; source: synthetic peptide (commercial or in-house synthesized BLP peptide analog)

Columns and labels:
LntPae [1] = molecular target: T1, LntPae; assay: TLC of FP2 to FP3 conversion; assay type: biochemical; conditions: acyl donor, HA-treated enzyme; 500 uM GPL, 150 uM FP2, pH 7.5, 37 C, 90 min
LntEco [2] = molecular target: T2, LntEco (Escherichia coli, UniProt P23930); assay: TLC of FP2 to FP3 conversion; assay type: biochemical; conditions: acyl donor, HA-treated enzyme; 500 uM GPL, 150 uM FP2, pH 7.5, 37 C, 90 min
T2 construct: gene lnt; full length, N-terminal thrombin-cleavable His6 tag, pET28a, expressed in E. coli C43(DE3); membrane protein in LMNG or DDM micelles; 57 kDa; HA-treated for GPL specificity assay

LntEco [3] = molecular target: T2, LntEco; assay: X-ray crystallography (in surfo); assay type: binding; conditions: covalent; dithiocarbamate at catalytic Cys387; lyso-PE also bound; 2.66 A
LntPae [4] = molecular target: T1, LntPae; assay: X-ray crystallography (in meso); assay type: binding; conditions: covalent; at catalytic Cys382; two monooleins in pocket; 2.6 A
[5] = molecular target: T3, LntEco Cys387Ala (apolipoprotein N-acyltransferase from E. coli, inactive mutant) (E. coli, UniProt P23930 1-512, Cys387Ala); assay: cryo-EM structure; Lnt mutant (16 mg/ml) incubated with Pam3CSK4 or FP2 (10 mg/ml in DMSO) for 1 hour at 21°C, then Superdex 200 10/300 Increase in 20 mM sodium citrate pH 6, 150 mM NaCl, 0.001% LMNG; protein in a detergent micelle; conditions: both partners purified
T3 construct: Apolipoprotein N-acyltransferase Lnt, E. coli, 57-kDa membrane protein; gene synthesized and cloned into pET28a (Nde I/Xho I); residues counted in E. coli numbering; The His6 tag is thrombin-cleavable; no cleavage step is described; In a detergent micelle (LMNG); also called Lnt Cys387Ala; C387A; source: E. coli C43(DE3), purified (Ni-NTA, Superdex 200) in LMNG

| Molecule | TLC of FP2 to FP3 conversion (LntPae [1]) | TLC of FP2 to FP3 conversion (LntEco [2]) | X-ray crystallography (in surfo) (LntEco [3]) | X-ray crystallography (in meso) (LntPae [4]) | binding result [5] |
| --- | --- | --- | --- | --- | --- |
| CCCCCCCC/C=C\CCCCCCCC(=O)O[C@H](COC(=O)CCCCCCCCCCCCCCC)COP(=O)(O)OCCN [POPE, palmitoyloleoylphosphatidylethanolamine] | (POPE) were effective acyl donors for LntEco and LntPae | (POPE) were effective acyl donors for LntEco and LntPae |  |  |  |
| CCCCCCCCCCCCCCN=C=S [TITC, tetradecyl-1-isothiocyanate] |  |  | Crystals of the TITC-modified protein (Lnt-TITC), grown in the presence of E. coli GPLs | a structure of the TITC-modified LntPae was obtained with two monooleins in the binding pocket |  |
| CCCCCCCC/C=C\CCCCCCCC(=O)O[C@H](COC(=O)CCCCCCCCCCCCCCC)COP(=O)(O)OCC(O)CO (stereo partly shown) [POPG, palmitoyloleoylphosphatidylglycerol] | (POPE) were effective acyl donors for LntEco and LntPae | palmitoyloleoylphosphatidylglycerol (POPG) and palmitoyloleoylphosphatidylethanolamine (POPE) were effective acyl donors for LntEco |  |  |  |
| B1 |  |  |  |  | binds |
